From patent US20230148152A1, “METHOD OF SYNTHESIZING SINGLE-STRANDED NUCLEOTIDE SEQUENCE, BLOCKED NUCLEOSIDE TRIPHOSPHATES AND RELATED METHODS” (Agency for Science, Technology and Research, priority 2019, published 2023) come the findings set out here.

What all share (format): biochemical
The subject of assay [1] is template-independent terminal deoxynucleotidyl transferase (TdT) enzyme. In words: Single base addition to single-stranded nucleotide sequence catalysed by TdT (overall conclusion). Conditions: for termination of further base incorporation: summary of tailing experiments; for incorporation in single stranded oligonucleotide via the catalysis of TdT: summary, recombinant or engineered TdT. The text has this: A series of screening experiments were designed and conducted to test the recognition of the reversible terminators nucleoside triphosphate reversible terminators designed in accordance with various embodiments disclosed herein by template-independent polymerase and the efficiency of the incorporation of such reversible terminators into the nucleic acid chain. In these experiments, the template-independent polymerase used is recombinant or engineered template-independent terminal deoxynucleotidyl transferase (TdT) enzyme and the initiator used is a single-stranded oligonucleotide sequence.

Assay [2] concerns engineered terminal deoxynucleotidyl transferase (TdT). Description: Tailing experiment design, screening of RT-dTTPs with eTdT as enzyme. Conditions: for incorporation into the original FAM-20-mer (21-mer product): eTdT as enzyme, PAGE, FIG. 8A and FIG. 8B; for incorporation yield, eTdT compared with rTdT: catalytic activity of rTdT compared with eTdT, FIG. 10. The text has this:
(§1) In this experimental design (FIG. 5), single-stranded deoxyoligonucleotides (20 nt) 102 with FAM tagged on 5′ end reacts with RT-dNTP 104 using TdT as the catalyst, and produce 21-mer (102a and 102b).
(§2) As the incorporation is not 100%, the unreacted FAM tagged oligo will further react with natural deoxynucleotidyl triphosphates (dATP) 106, and produces tailing products 102c. The 21-mer (102a and 102b) and tailing products (102c) can be separated by polyacrylamide gel electrophoresis.
(§3) 1. Set up the following reactions
(§4) 2. Incubate the solution at 37° C. for 60 min
(§5) 3. Purification • Desalt with Zymo column Oligo Clean & Concentrator D4061 (following manufacturer's protocol) to obtain 15 μL aqueous solution and concentrate on speedvac to dry
(§6) 4. Set up the following reactions
(§7) 5. Incubate at 37° C. for 60 min
(§8) 6. Stop the reaction by heating at 70° C. for 10 min
(§9) 7. Purification • Desalt with Zymo column Oligo Clean & Concentrator D4061 (following manufacturer's protocol) to obtain 15 μL aqueous solution and concentrate on speedvac to dry
(§10) 8. Denaturing PAGE (20% urea PAGE, 200V for 90 min) • Preheat 1×TBE buffer at 65° C. • Set up gel in gel tank, flush wells, pre-run 20% urea polyacrylamide gel at 200V for 30 min • Prepare loading sample (dry sample+2.5 μL 1×TBE, 0.5 μL loading buffer), preheat sample at 95° C. for 10 min • Flush each well 3 times to remove urea in wells, load sample, and run for 90 min • Image under UV light without post staining. If post staining is needed, SYBR Gold is used.
(§11) In evaluating the RT-dTTP(s)'s incorporation and termination activities using tailing experiment design, two types of TdTs are used for the evaluation studies: recombinant TdT (rTdT) purchased from Promega and engineered TdT (eTdT).

Assay [3] deals with terminal deoxynucleotidyl transferase (TdT). In words: Evaluation of reversibility of reversible terminators (incorporation, capping, deprotection, elongation). Conditions: elongation by TdT after deprotection of CE or DT.
Description: Once RT-dTTP is incorporated to the single-stranded oligonucleotide, the reversible terminator needs to be removed to enable the next base incorporation. […] The reaction will produce a mixture of products which includes the reversibly terminated 21-mer (202a and 202b) and unreacted original 20-mer 202. Then azido-ddGTP 206 will be added to 3′-termini of the unreacted 20-mer 202. As 3′ termini become a dideoxynucleotide 202c, the azido oligonucleotide will not be able to further react with any dTTP via TdT. Then reversibly terminator will be removed in certain conditions, and further incorporated with natural dTTP 208 via TdT.
1. Set Up the Following Reactions
as §4
3. Purification • Desalt with Zymo column Oligo Clean & Concentrator D4061 (following protocol) to obtain 15 μL aqueous solution and concentrate on speedvac to dry
4. Add 85 μL of 30% NH4OH and heat at 80° C. for 1 h
5. Purification • Desalt with Zymo column Oligo Clean & Concentrator D4061 (following protocol) to obtain 15 μL aqueous solution and concentrate on speedvac to dry Elongation of Nucleotide with Natural dATP:
6. Set up the following reactions
7. Incubate at 37° C. for 60 min
8. Stop the reaction by heating at 70° C. for 10 min
9. Purification • Desalt with Zymo column Oligo Clean & Concentrator D4061 (following protocol) to obtain 15 μL aqueous solution and concentrate on speedvac to dry […]

In the next assay the target is T1, rTdT (Bos taurus, UniProt P06526).
T1 construct: purchased Promega
T1 sequence (P06526 whole entry): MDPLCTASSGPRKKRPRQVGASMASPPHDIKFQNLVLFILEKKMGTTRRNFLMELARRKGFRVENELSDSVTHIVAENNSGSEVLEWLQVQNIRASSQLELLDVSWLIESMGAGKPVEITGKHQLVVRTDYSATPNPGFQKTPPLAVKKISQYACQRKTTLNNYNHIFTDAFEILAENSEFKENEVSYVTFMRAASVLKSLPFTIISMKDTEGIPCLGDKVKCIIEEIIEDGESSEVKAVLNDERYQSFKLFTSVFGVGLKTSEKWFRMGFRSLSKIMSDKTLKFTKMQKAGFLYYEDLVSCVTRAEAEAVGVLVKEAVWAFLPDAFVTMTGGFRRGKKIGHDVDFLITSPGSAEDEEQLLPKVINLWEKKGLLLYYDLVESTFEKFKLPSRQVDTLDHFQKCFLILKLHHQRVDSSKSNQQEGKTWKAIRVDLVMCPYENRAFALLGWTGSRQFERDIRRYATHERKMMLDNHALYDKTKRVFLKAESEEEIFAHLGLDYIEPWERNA
Description: Laddering experiment design (dATP / RT-dTTP ratios). Conditions: laddering experiments, FIG. 11; compared with Az-dTTP. How it is done: The laddering experiment design is to differentiate the ratio between natural dNTP and RT-dNTP.
as §3
2. Incubate at 37° C. for 60 min
3. Stop the reaction by heating at 70° C. for 10 min
4. Purification • Desalt with Zymo column Oligo Clean & Concentrator D4061 (following manufacturer's protocol) to obtain 15 μL aqueous solution and concentrate on speedvac to dry
5. Denaturing PAGE (20% urea PAGE, 200V for 90 min) • Preheat 1×TBE buffer at 65° C. • Set up gel in gel tank, flush wells, pre-run 20% urea polyacrylamide gel at 200V for 30 min • Prepare loading sample (dry sample+2.5 μL 1×TBE, 0.5 μL loading buffer), preheat sample at 95° C. for 10 min • Flush each well 3 times to remove urea in wells, load sample, and run for 90 min • Image under UV light without post staining. If post staining is needed, SYBR Gold is used.

Assay [4] addresses T2, recombinant terminal deoxynucleotidyl transferase (TdT) (Bos taurus, UniProt P06526).
T2 construct: purchased Promega
Description: Tailing experiment design, screening of RT-dTTPs with rTdT as enzyme. Conditions: 37° C. for 60 min, PAGE, FIG. 6A, FIG. 7.
Description: as §1, §2, §3, §4, §5, §6, §7, §8, §9, §10, §11

T2 sequence (P06526 whole entry): as above

Turning to `C=CCOCO[C@H]1C[C@H](n2cc(C)c(=O)[nH]c2=O)O[C@@H]1COP(=O)(O)OP(=O)(O)OP(=O)(O)O` [AL-dTTP, (allyloxy)methyl (ALM)-dTTP], in assay [1], the “termination of further base incorporation” value was “terminate further base incorporation” and the “incorporation in single stranded oligonucleotide via the catalysis of TdT” value (“incorporation … of TdT” for short) is “successfully incorporated”. In addition, the “incorporation into the original FAM-20-mer (21-mer product)” value in assay [2] is recorded as “gave 21-mer products”.

With `Cc1cn(C2CC(OCN=[N+]=[N-])C(COP(=O)(O)OP(=O)(O)OP(=O)(O)O)O2)c(=O)[nH]c1=O` (stereo not shown) [Az-dTTP, reference compound], the “incorporation yield, eTdT compared with rTdT” value in assay [2] was “much high incorporation yield than rTdT”.

In the case of `Cc1cn([C@H]2C[C@H](OCCC#N)[C@@H](COP(=O)(O)OP(=O)(O)OP(=O)(O)O)O2)c(=O)[nH]c1=O` [CE-dTTP, 2-cyanoethyl ether (CE)-dTTP], in assay [3], the “further incorporation of natural nucleotide after deprotection” value was “able to incorporate with natural dTTP”. For the same compound, in assay [2], the “incorporation yield, eTdT compared with rTdT” value is “much high incorporation yield than rTdT”. In addition, the “termination of the reaction” value at rTdT was “can terminate the reaction as well as Az-dTTP”.

On to `Cc1cn([C@H]2C[C@H](OC(=O)OCCSSC(C)(C)C)[C@@H](COP(=O)(O)OP(=O)(O)OP(=O)(O)O)O2)c(=O)[nH]c1=O` [DT-dTTP, disulfide carbonate (DT)-dTTP], for which, in assay [1], the “termination of further base incorporation” value is reported as “terminate further base incorporation” and the “incorporation … of TdT” value is listed as “successfully incorporated”. Moreover, the “incorporation into the original FAM-20-mer (21-mer product)” value in assay [4] is “particularly good yield of 21-mer”. The “further incorporation of natural nucleotide after deprotection” value in assay [3] was “able to incorporate with natural dTTP”. Besides, the “incorporation into the original FAM-20-mer (21-mer product)” value in assay [2] is recorded as “gave 21-mer products”. Also, the “termination of the reaction” value on rTdT is on record as “can terminate the reaction as well as Az-dTTP”.

In the case of `Cc1cn([C@H]2C[C@H](OCOCc3ccc([N+](=O)[O-])cc3)[C@@H](COP(=O)(O)OP(=O)(O)OP(=O)(O)O)O2)c(=O)[nH]c1=O` [PNBA-dTTP, 4-nitrobenzyloxy-methyl (PNBA)-dTTP], the “termination of further base incorporation” value in assay [1] is “terminate further base incorporation”. In addition, the “incorporation … of TdT” value in assay [1] was “successfully incorporated”. Also, the “incorporation into the original FAM-20-mer (21-mer product)” value in assay [4] and in assay [2] was “gave 21-mer products” in each case.

As for `Cc1cn([C@H]2C[C@H](OCOCC[Si](C)(C)C)[C@@H](COP(=O)(O)OP(=O)(O)OP(=O)(O)O)O2)c(=O)[nH]c1=O` [SEM-dTTP, 2-(trimethylsilyl)ethoxymethyl (SEM)-dTTP], in assay [1], the “termination of further base incorporation” value is recorded as “terminate further base incorporation” and the “incorporation … of TdT” value is recorded as “successfully incorporated”. Besides, in assay [4], the “incorporation into the original FAM-20-mer (21-mer product)” value is given as “gave 21-mer products”. Moreover, the “incorporation into the original FAM-20-mer (21-mer product)” value in assay [2] was “gave 21-mer products”.

“dithianemethyl acetal (DMA)-dTTP [DMA-dTTP]”: in assay [1], the “termination of further base incorporation” value was “terminate further base incorporation” and the “incorporation … of TdT” value is on record as “successfully incorporated”. For the same compound, in assay [4], the “incorporation into the original FAM-20-mer (21-mer product)” value is recorded as “gave 21-mer products”. The “incorporation into the original FAM-20-mer (21-mer product)” value in assay [2] is listed as “gave 21-mer products”.
